According to article PMC11714206, “Massively Parallel Screening of Toll/Interleukin‐1 Receptor (TIR)‐Derived Peptides Reveals Multiple Toll‐Like Receptors (TLRs)‐Targeting Immunomodulatory Peptides” (Advanced Science, 2024):

Target: T1, MAL^TIR (Homo sapiens, UniProt P58753)
T1 construct: MAL (residues 79–221); 6xHis; made in house; host or cells: E. coli BL21 (DE3)
Experiment: T‐Surf phage library (P8 and P3) selection against MAL^TIR, four rounds, NGS read counts
Format: binding
Details: for P3_MAL Rank (after) / P3_MAL Rank (before): P3 library; for P8_MAL Rank (after) / P8_MAL Rank (before): P8 library; for Population: 4th round of selection against MAL TIR, share of NGS reads
Procedure: T‐Surf libraries were screened against the immobilized TIR domains of two major human TLR adaptor proteins, MAL^TIR and MyD88^TIR, allowing cross‐species selection of TIR‐binding motifs with 190 946 TIR‐derived peptides in a single binding assay (Scheme 1). Enriched phage pools from the fourth round of selection were analyzed using NGS after barcoding the peptide‐coding regions of the phage pools.
Phage display screening was performed by coating two wells of a 96‐well plate (Maxisorp, Thermo Fisher Scientific) with 100 µL of 5 µg mL^−1 TIR domains overnight; then, the coated wells were blocked with 200 µL of blocking buffer (0.2% BSA in PBS) and set aside for 1 h at 4 °C with gentle shaking. Next, 100 µL of the phage library was added to the wells and incubated for 1 h at room temperature (RT; 20 – 22 °C) with gentle shaking. The plate was washed four times with PBS containing 0.5% Tween‐20; the bound phages were eluted by adding 100 µL of 100 mM HCl to each well. The elute was neutralized with 10 µL of 1.0 M Tris‐HCl (pH 11.0). E. coli TG1 cells were grown to the log phase (A600 = ≈0.6), and 1 mL of the culture was incubated with 100 µL of the eluted phages for 30 min at 37 °C, with shaking at 200 rpm. Next, 1 µL of M13KO7 helper phages was added, followed by incubation for 45 min at 37 °C, with shaking. Subsequently, the cells were transferred to 25 mL of 2× yeast extract tryptone/carbenicillin/kanamycin medium and incubated overnight at 37 °C with shaking at 200 rpm. The amplified phages were precipitated with 20% PEG‐8000/2.5 M NaCl to be used for the next round of selection.
The naïve T‐Surf libraries in P8 and P3 and the enriched phage pools after four rounds were barcoded for NGS as previously described.^[ [59] ^] Briefly, 5 µL of the phage pool was used as a template for 20 cycles of a 50 µL PCR reaction using […] each of forward and reverse barcoded primers and PrimeSTAR Max DNA Polymerase. The PCR products were purified using Expin Gel SV (GeneAll). The NGS samples were quantified using qPCR, following the qPCR Quantification Protocol Guide (KAPA Library Quantification kits for Illumina Sequencing Platform), and qualified using the TapeStation High Sensitivity D1000 ScreenTape (Agilent Technologies). The indexed libraries were further sequenced by Macrogen (Seoul, Republic of Korea) using the NovaSeq platform (Illumina) with 100 bp paired‐end reads. The reads were demultiplexed by barcodes and filtered for an average Phred quality score of at least 30, followed by trimming the flanking consensus sequences using Cutadapt (version 2.3). Peptide sequence populations were analyzed according to the read counts.

[1] = P8_MAL: rank by count after grouping
[2] = P8_MAL: rank by count before grouping
[3] = 4R selection against MAL, rank after grouping
[4] = 4R selection against MAL, rank before grouping
[5] = selection against MAL, rank after grouping
[6] = selection against MAL, rank before grouping
[7] = selection against MAL TIR, rank by count after grouping
[8] = selection against MAL TIR, rank by count before grouping
[9] = P3_MAL: rank by count after grouping
[10] = P3_MAL: rank by count before grouping
[11] = P3_MAL pool: P3 T-Surf phage library
[12] = selection against MAL, rank by count after grouping
[13] = selection against MAL, rank by count before grouping
[14] = P8_MAL pool: P8 T-Surf phage library

T1 sequence (P58753 79-221): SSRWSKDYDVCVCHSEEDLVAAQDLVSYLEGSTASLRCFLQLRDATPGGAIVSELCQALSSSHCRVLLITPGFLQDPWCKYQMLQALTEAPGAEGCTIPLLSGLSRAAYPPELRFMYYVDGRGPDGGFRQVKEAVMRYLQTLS

In the case of WDDPWFWDKLHYAMPR, the “Rank (after)” value [1] is reported as 463 and the “Rank (before)” value [2] is reported as 1422.
PNLRTKVLYYPMRTKT was tested, and the “P3_MAL Rank (after)” value [3] was 624 and the “P3_MAL Rank (before)” value [4] was 2699.
With WFLFTVRSAIYAMDQVADT the “Rank (after)” value [1] was 459 and the “Rank (before)” value [2] was 1324.
SAAYDDFWDRLIRMIE was tested, and the “Rank (after)” value [1] was 173 and the “Rank (before)” value [2] was 1007.
With ALLYPFLINLTHPTHF the “P8_MAL Rank (after)” value [5] was 522 and the “P8_MAL Rank (before)” value [6] was 1957.
In the case of PNLRTTLMTSPMRTKT, the “P3_MAL Rank (after)” value [3] is reported as 656 and the “P3_MAL Rank (before)” value [4] is reported as 2673.
With NQWRNALPAAANLRGW the “P3_MAL Rank (after)” value [7] was 286 and the “P3_MAL Rank (before)” value [8] was 3349.
For WFYERLVSLIQRDTTV, the “P8_MAL Rank (after)” value [7] was 212 and the “P8_MAL Rank (before)” value [8] was 1278.
LKEESWRRALERAGKL was tested, and the “Rank (after)” value [9] was 410 and the “Rank (before)” value [10] was 2307.
RLLKWKKRCISFIAG was tested, and the “Rank (after)” value [9] was 400 and the “Rank (before)” value [10] was 2492.
For PNLRTKVLNYLMRIKT, the Population [11] was 0.00413%.
In the case of LQNQWKLALTNVASLV, the “Rank (after)” value [9] is reported as 459 and the “Rank (before)” value [10] is reported as 2149.
With RNFAGQLAGLTLQNGDEGK the “P3_MAL Rank (after)” value [3] was 607 and the “P3_MAL Rank (before)” value [4] was 2604.
In the case of ESIIYQLHRSSERVAN, the “P3_MAL Rank (after)” value [5] is reported as 501 and the “P3_MAL Rank (before)” value [6] is reported as 2075.
With WFYERPVSLILRDTIV the “Rank (after)” value [1] was 153 and the “Rank (before)” value [2] was 1256.
DTKLKKCESIAPELLL was tested, and the “P8_MAL Rank (after)” value [7] was 204 and the “P8_MAL Rank (before)” value [8] was 2014.
For DWFLSKLSQHILRHEK, the “P3_MAL Rank (after)” value [12] was 722 and the “P3_MAL Rank (before)” value [13] was 1886.
For SSFREGLWRLLELSK, the “Rank (after)” value [9] was 131 and the “Rank (before)” value [10] was 369.
With DWFLSKLNQHLLKREK the “Rank (after)” value [9] was 424 and the “Rank (before)” value [10] was 1898.
For WFLTAFRVAMEQVADT, the “P8_MAL Rank (after)” value [3] was 662 and the “P8_MAL Rank (before)” value [4] was 1359.
With RRLKWKEALHQLYSWV the “P3_MAL Rank (after)” value [3] was 668 and the “P3_MAL Rank (before)” value [4] was 2560.
In the case of DIQSSRLKDDADLVGQ, the “P3_MAL Rank (after)” value [3] is reported as 655 and the “P3_MAL Rank (before)” value [4] is reported as 1960.
AFFWAQLKSVLGNLTK was tested, and the “Rank (after)” value [1] was 399 and the “Rank (before)” value [2] was 1623.
For VEPTQVRKQRCGGKC, the “P3_MAL Rank (after)” value [12] was 760 and the “P3_MAL Rank (before)” value [13] was 1661.
For RRLKWKDALHQFHSWV, the “Rank (after)” value [9] was 124 and the “Rank (before)” value [10] was 594.
In the case of WIYERLVSRILRDTKV, the “Rank (after)” value [1] is reported as 163 and the “Rank (before)” value [2] is reported as 1430.
For SLRNKLLSHLLEEFKS, the “Rank (after)” value [9] was 418 and the “Rank (before)” value [10] was 3066.
KLLWEKCTFFLPSLSR was tested, and the “Rank (after)” value [1] was 429 and the “Rank (before)” value [2] was 2726.
For RNFAGLLYDRLTKWA, the “P3_MAL Rank (after)” value [3] was 630 and the “P3_MAL Rank (before)” value [4] was 2594.
In the case of FMSHLYQGLKIVAFL, the “P3_MAL Rank (after)” value [5] is reported as 523 and the “P3_MAL Rank (before)” value [6] is reported as 1204.
In the case of GFYERQVSLVLGDTKV, the “P8_MAL Rank (after)” value [7] is reported as 281 and the “P8_MAL Rank (before)” value [8] is reported as 1569.
KEVEGWRDALAKVASP was tested, and the “P3_MAL Rank (after)” value [5] was 576 and the “P3_MAL Rank (before)” value [6] was 3557.
For KTLAGLLYDHLFRLRL, the Population [11] was 0.0233%, the “Rank (after)” value [9] was 101 and the “Rank (before)” value [10] was 102.
In the case of ELLLSVFMTLSAPRTV, the “P8_MAL Rank (after)” value [5] is reported as 577 and the “P8_MAL Rank (before)” value [6] is reported as 2043.
For FMSHLRHHLQAKDH, the “Rank (after)” value [9] was 166 and the “Rank (before)” value [10] was 709.
PKLRTKVLKYQMRTKT was tested, and the “Rank (after)” value [9] was 426 and the “Rank (before)” value [10] was 2762.
For WFYERLVSLILRVTKV, the Population [14] was 0.00309%.
In the case of LFFWESLKQLLRRAGL, the “P8_MAL Rank (after)” value [7] is reported as 252 and the “P8_MAL Rank (before)” value [8] is reported as 2096.
For KMKYWKDALYDASNLS, the “P3_MAL Rank (after)” value [5] was 510 and the “P3_MAL Rank (before)” value [6] was 3703.
YAFTGHLHRYLVQRGVHGGD was tested, and the “P3_MAL Rank (after)” value [5] was 560 and the “P3_MAL Rank (before)” value [6] was 1396.
With LFFWARLKNVLGSAGS the “P8_MAL Rank (after)” value [5] was 557 and the “P8_MAL Rank (before)” value [6] was 2064.
For ALLYTFLINLTHPTNF, the Population [14] was 0.0034%.
